In brackets after ≈: the same amount, converted by molar mass. Values belong to the compound of their own block, whether it stands above or below them.
Tests used:
HCT-116 [1] = assay: Cytotoxicity against human HCT116 cells assessed as distinct polyploidy phenotype after 72 hrs; format: functional
in vitro = conditions: mouse, plasma
Aurora kinase B = Aurora kinase B (Homo sapiens, UniProt Q96GD4); assay: Inhibition of Aurora B
[2] = biological target: Cyclin-dependent kinase 1/cyclin B1 (Homo sapiens, UniProt P06493); assay: Inhibition of CDK1/Cyclin B; format: protein-complex assay
[3] = Oral bioavailability in mouse; format: ADME, organism-based; conditions: in vivo
[4] = Plasma concentration in mouse assessed per kg body weight; format: ADME, organism-based
[5] = biological target: Cyclin-dependent kinase 2 (Homo sapiens, UniProt P24941); assay: Inhibition of CDK2/Cyclin A
Aurora kinase A = biological target: T1, Aurora kinase A (Homo sapiens, UniProt O14965)
T1 sequence (O14965 whole entry): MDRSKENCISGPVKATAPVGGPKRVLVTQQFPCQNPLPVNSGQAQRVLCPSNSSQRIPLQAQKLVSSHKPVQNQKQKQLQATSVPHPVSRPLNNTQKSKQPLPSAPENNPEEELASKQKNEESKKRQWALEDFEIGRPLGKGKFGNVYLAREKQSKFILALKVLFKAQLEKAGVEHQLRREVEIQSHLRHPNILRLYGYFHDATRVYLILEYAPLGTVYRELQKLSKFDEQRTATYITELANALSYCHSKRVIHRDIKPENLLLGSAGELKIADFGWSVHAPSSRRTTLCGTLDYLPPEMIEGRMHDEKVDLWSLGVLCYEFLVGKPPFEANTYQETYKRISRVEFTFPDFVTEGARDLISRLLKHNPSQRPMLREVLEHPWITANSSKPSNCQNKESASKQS

HCT-116 [6] = assay: Cytotoxicity against human HCT116 cells assessed as number of colonies after 10 to 14 days by colony forming assay; format: functional, cell-based
[7] = Lipophilicity, log D at pH 7.4; format: physicochemical; conditions: buffer
[8] = Cmax in BALB/c mouse bearing human HCT116 cells at 10 mg/kg, po; format: ADME, organism-based, HCT-116; parameters: dose 10 mg/kg, route oral; conditions: in vivo
Cytochrome P450 1A2 = biological target: T2, Cytochrome P450 1A2 (Homo sapiens, UniProt P05177); assay: Inhibition of CYP1A2; format: ADME
T2 sequence (P05177 whole entry): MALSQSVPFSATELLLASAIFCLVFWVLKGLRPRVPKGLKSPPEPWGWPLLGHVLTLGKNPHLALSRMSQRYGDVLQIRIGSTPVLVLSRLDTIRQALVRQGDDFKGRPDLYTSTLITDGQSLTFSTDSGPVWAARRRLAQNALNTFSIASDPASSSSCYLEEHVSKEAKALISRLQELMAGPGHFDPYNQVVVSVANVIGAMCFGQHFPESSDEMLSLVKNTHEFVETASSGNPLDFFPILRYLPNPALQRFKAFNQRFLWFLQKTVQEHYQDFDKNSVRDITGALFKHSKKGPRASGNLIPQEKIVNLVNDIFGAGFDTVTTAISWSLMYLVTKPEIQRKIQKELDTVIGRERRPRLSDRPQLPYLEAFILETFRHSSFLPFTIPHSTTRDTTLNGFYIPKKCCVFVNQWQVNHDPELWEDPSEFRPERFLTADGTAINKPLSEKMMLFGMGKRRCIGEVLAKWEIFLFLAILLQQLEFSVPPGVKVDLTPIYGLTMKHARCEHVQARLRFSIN

[9] = AUC (0 to t) in BALB/c mouse bearing human HCT116 cells at 20 mg/kg, ip; format: ADME, organism-based, HCT-116; parameters: dose 20 mg/kg, route intraperitoneal; conditions: in vivo
[10] = Solubility at pH 5.5; format: physicochemical; conditions: buffer
[11] = biological target: Tyrosine-protein kinase Yes (Homo sapiens, UniProt P07947); assay: Inhibition of Yes
[12] = Cmax in BALB/c mouse bearing human HCT116 cells at 20 mg/kg, ip; format: ADME, organism-based, HCT-116; parameters: dose 20 mg/kg, route intraperitoneal; conditions: in vivo
[13] = biological target: Vascular endothelial growth factor receptor 3 (Homo sapiens, UniProt P35916); assay: Inhibition of VEGFR3
[14] = Solubility at pH 7.0; format: physicochemical; conditions: buffer
[15] = AUC (0 to t) in BALB/c mouse bearing human HCT116 cells at 5 mg/kg, iv; format: ADME, organism-based, HCT-116; parameters: dose 5 mg/kg, route intravenous; conditions: in vivo
Cytochrome P450 2C19 = Cytochrome P450 2C19 (Homo sapiens, UniProt P33261); assay: Inhibition of CYP2C19; format: ADME
[16] = biological target: T3, Serine/threonine-protein kinase 17A (Homo sapiens, UniProt Q9UEE5); assay: Inhibition of DRAK1
T3 sequence (Q9UEE5 whole entry): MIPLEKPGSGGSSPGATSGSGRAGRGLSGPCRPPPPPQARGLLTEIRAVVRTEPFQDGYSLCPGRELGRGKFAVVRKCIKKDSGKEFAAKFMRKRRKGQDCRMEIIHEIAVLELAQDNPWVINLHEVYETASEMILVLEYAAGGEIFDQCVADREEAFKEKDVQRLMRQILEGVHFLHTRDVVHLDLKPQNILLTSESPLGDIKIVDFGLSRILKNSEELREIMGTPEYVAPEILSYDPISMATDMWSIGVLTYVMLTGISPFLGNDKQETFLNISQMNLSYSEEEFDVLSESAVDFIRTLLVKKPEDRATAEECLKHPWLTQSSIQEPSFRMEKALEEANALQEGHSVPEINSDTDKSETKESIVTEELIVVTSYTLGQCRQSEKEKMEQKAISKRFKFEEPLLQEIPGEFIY

[17] = Volume of distribution at steady state in BALB/c mouse bearing human HCT116 cells at 5 mg/kg, iv; format: ADME, organism-based, HCT-116; parameters: dose 5 mg/kg, route intravenous; conditions: in vivo, read-out: Vdss
[18] = AUC (0 to t) in BALB/c mouse bearing human HCT116 cells at 10 mg/kg, po; format: ADME, organism-based, HCT-116; parameters: dose 10 mg/kg, route oral; conditions: in vivo
Cytochrome P450 2D6 = Cytochrome P450 2D6 (Homo sapiens, UniProt P10635); assay: Inhibition of CYP2D6; format: ADME
[19] = Half life in human HCT116 cells xenografted BALB/c mouse tumor at 10 mg/kg, iv; format: ADME, organism-based, HCT-116; parameters: dose 10 mg/kg, route intravenous
[20] = Clearance in BALB/c mouse bearing human HCT116 cells at 5 mg/kg, iv; format: ADME, organism-based, HCT-116; parameters: dose 5 mg/kg, route intravenous; conditions: in vivo, read-out: MLC
[21] = Half life in BALB/c mouse plasma bearing human HCT116 cells at 5 mg/kg, iv; format: ADME, organism-based, HCT-116; parameters: dose 5 mg/kg, route intravenous
Cytochrome P450 2C9 = Cytochrome P450 2C9 (Homo sapiens, UniProt P11712); assay: Inhibition of CYP2C9; format: ADME
[22] = Oral bioavailability in BALB/c mouse bearing human HCT116 cells at 10 mg/kg; format: ADME, organism-based, HCT-116; conditions: in vivo
[23] = Bioavailability in BALB/c mouse bearing human HCT116 cells at 20 mg/kg, ip; format: ADME, organism-based, HCT-116; conditions: in vivo
[24] = biological target: Glycogen synthase kinase-3 beta (Homo sapiens, UniProt P49841); assay: Inhibition of GSK3-beta
[25] = Cmax in BALB/c mouse bearing human HCT116 cells at 5 mg/kg, iv; format: ADME, organism-based, HCT-116; parameters: dose 5 mg/kg, route intravenous; conditions: in vivo
[26] = biological target: Cyclin-dependent kinase 1/cyclin B1 (Homo sapiens) (UniProt P06493+P14635); conditions: 1000 uM
Mus musculus [27] = assay: Toxicity in BALB/c mouse bearing human HCT116 cells assessed as body weight at 20 mg/kg, ip relative to starting weight; format: organism-based, HCT-116; parameters: dose 20 mg/kg, route intraperitoneal; conditions: in vivo
HCT-116 [28] = assay: Antitumor activity against human HCT116 cells xenografted in BALB/c mouse at 20 mg/kg, ip after 16 days relative to control; format: functional; conditions: route intraperitoneal
Mus musculus [29] = assay: Toxicity in BALB/c mouse bearing human HCT116 cells assessed as body weight at 15 mg/kg, ip relative to starting weight; format: organism-based, HCT-116; parameters: dose 15 mg/kg, route intraperitoneal; conditions: in vivo
HCT-116 [30] = assay: Antitumor activity against human HCT116 cells xenografted in BALB/c mouse at 15 mg/kg, ip after 16 days relative to control; format: functional; conditions: route intraperitoneal

Cyclin-dependent kinase 1/cyclin B1, sequence (P06493 whole entry): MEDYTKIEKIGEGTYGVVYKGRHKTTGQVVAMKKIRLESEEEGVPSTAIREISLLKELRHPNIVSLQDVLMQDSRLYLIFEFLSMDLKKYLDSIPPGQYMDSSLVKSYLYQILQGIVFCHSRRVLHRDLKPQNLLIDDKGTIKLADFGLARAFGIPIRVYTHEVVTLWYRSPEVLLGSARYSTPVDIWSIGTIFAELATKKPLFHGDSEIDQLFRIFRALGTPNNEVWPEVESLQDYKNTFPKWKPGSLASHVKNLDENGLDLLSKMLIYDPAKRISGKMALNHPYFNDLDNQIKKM
Cyclin-dependent kinase 1/cyclin B1, sequence (P14635 whole entry, further chain): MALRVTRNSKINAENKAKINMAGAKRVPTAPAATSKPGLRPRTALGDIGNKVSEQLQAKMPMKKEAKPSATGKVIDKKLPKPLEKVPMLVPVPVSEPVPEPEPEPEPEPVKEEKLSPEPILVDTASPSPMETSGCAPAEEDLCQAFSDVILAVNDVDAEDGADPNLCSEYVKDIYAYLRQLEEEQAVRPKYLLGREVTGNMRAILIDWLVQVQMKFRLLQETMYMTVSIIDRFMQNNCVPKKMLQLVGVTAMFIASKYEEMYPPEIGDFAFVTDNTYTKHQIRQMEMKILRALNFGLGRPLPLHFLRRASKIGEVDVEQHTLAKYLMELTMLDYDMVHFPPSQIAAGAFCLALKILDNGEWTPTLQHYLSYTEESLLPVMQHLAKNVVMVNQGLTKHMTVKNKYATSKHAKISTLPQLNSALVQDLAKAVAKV
Aurora kinase B, sequence (Q96GD4 whole entry): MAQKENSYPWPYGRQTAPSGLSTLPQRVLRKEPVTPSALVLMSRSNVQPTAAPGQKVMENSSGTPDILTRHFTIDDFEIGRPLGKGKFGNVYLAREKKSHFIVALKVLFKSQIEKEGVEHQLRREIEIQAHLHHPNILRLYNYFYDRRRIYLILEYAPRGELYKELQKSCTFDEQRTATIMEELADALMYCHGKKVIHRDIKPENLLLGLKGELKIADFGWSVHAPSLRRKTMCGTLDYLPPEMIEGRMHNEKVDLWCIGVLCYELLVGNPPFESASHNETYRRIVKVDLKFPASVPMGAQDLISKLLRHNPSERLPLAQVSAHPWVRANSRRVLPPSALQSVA
Glycogen synthase kinase-3 beta, sequence (P49841 whole entry): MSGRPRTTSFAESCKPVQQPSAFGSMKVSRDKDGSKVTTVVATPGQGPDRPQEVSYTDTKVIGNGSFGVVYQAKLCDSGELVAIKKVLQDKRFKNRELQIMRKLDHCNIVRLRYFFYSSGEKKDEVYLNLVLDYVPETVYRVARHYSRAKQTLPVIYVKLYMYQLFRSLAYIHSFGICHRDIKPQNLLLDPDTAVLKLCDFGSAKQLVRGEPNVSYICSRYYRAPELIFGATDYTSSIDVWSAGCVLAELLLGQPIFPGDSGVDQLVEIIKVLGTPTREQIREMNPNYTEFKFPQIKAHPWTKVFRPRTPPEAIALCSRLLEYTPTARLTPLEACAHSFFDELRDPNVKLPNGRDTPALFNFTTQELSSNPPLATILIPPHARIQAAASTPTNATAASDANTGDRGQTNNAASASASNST
Cyclin-dependent kinase 1/cyclin B1 (Homo sapiens), sequence (P06493 whole entry, looked up): as the sequence (P06493 whole entry) above
Cyclin-dependent kinase 1/cyclin B1 (Homo sapiens), sequence (P14635 whole entry, looked up): as the sequence (P14635 whole entry, further chain) above
Tyrosine-protein kinase Yes, sequence (P07947 whole entry): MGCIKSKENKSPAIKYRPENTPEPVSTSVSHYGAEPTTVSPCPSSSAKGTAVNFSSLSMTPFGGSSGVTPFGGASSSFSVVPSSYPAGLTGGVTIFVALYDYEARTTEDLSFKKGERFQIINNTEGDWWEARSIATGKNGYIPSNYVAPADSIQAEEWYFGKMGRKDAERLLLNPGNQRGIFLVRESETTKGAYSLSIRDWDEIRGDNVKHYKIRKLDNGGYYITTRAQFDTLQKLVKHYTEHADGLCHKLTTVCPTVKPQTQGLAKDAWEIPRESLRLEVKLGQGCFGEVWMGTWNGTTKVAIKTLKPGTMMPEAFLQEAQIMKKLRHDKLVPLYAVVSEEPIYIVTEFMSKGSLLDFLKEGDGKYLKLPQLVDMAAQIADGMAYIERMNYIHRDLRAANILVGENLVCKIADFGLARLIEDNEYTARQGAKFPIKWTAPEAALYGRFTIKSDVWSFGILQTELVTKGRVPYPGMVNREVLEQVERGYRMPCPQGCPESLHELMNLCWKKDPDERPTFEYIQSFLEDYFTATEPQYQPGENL
Vascular endothelial growth factor receptor 3, sequence (P35916 whole entry): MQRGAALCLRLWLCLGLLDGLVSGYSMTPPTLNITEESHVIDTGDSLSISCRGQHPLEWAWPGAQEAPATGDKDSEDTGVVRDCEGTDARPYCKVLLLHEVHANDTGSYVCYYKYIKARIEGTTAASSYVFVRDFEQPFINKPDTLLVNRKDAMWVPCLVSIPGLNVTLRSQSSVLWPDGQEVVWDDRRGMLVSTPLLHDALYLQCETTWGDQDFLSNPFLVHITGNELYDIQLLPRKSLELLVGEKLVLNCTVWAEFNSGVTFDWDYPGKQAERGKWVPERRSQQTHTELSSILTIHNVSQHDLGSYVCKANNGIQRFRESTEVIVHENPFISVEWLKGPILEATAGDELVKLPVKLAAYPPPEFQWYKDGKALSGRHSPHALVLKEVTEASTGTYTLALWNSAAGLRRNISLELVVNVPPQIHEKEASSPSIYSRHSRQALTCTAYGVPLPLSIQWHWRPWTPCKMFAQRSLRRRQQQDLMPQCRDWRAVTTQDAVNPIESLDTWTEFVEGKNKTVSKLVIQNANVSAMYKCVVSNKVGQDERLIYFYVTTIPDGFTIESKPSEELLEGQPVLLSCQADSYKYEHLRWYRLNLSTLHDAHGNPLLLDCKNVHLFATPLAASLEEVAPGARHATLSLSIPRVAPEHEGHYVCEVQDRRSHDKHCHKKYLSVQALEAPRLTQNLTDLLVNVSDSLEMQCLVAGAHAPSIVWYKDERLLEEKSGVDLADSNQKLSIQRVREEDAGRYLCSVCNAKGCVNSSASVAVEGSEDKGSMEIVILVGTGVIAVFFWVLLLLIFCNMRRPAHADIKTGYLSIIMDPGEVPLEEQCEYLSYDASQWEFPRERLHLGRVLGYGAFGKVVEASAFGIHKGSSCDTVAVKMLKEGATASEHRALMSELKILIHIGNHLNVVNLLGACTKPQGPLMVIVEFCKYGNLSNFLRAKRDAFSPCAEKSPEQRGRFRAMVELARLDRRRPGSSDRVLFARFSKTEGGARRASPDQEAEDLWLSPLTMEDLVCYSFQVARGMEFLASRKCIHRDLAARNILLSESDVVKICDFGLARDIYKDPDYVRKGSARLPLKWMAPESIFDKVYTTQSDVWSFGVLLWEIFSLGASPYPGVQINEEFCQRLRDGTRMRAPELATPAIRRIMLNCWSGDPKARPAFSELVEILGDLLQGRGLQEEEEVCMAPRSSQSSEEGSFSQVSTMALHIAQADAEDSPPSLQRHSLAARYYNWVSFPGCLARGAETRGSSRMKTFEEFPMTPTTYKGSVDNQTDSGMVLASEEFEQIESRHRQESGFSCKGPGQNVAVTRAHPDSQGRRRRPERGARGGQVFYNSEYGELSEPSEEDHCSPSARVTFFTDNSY
Cytochrome P450 2C9, sequence (P11712 whole entry): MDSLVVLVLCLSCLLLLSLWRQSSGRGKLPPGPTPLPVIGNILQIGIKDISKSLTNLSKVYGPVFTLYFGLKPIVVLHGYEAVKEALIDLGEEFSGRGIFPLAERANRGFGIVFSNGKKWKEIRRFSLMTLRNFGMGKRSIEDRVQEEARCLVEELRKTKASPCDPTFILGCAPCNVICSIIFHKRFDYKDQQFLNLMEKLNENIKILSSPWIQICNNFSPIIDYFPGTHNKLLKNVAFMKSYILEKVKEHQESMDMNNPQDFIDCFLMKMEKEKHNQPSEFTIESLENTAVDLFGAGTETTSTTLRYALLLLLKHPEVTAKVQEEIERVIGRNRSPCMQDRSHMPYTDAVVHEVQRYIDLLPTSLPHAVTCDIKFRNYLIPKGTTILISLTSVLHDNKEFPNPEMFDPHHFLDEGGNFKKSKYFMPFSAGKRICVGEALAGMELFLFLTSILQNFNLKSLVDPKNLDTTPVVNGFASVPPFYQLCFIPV
Cytochrome P450 2C19, sequence (P33261 whole entry): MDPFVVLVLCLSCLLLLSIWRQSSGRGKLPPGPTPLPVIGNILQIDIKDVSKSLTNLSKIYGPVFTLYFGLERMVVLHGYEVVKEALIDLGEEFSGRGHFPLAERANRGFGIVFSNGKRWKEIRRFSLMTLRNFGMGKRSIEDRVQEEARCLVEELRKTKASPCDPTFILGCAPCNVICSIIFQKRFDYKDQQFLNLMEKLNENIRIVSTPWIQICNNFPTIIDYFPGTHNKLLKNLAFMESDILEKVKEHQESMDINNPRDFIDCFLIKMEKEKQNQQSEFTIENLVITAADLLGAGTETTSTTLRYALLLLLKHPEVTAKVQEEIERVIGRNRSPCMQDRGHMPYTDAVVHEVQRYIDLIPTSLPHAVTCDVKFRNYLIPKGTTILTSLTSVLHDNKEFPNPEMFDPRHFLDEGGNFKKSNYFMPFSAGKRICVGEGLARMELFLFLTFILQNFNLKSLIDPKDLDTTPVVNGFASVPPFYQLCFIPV

Compound: O=C(Nc1c[nH]nc1-c1nc2ccc(CN3CCOCC3)cc2[nH]1)c1ccc(F)cc1
Activity (HCT-116 [1]): 0.3 µM
fraction unbound (in vitro): 0.005
IC50 (Aurora kinase B): 75 nM
IC50 [2]: 1500 nM
bioavailability [3]: 26%
clearance [4]: 43 mL/min/kg
IC50 [5]: 530 nM

Compound: O=C(Nc1ccccc1)Nc1c[nH]nc1-c1nc2cc(CN3CCOCC3)ccc2[nH]1
Activity (HCT-116 [1]): 0.3 µM
fraction unbound (in vitro): 0.047
IC50 (Aurora kinase B): 54 nM
IC50 [2]: 5500 nM
IC50 [5]: 1800 nM

Compound: O=C(Nc1c[nH]nc1-c1nc2ccc(CN3CCOCC3)cc2[nH]1)NC1CC1 [AT-9283]
Cmax [8]: 0.45 µM
IC50 (Cytochrome P450 1A2): > 10000 nM
IC50 (HCT-116 [6]): 12 nM
AUC(0-t) [9]: 7.7 µM·h
solubility [10]: 13000 µg/mL (≈ 34.1 mM)
IC50 [11]: 1 nM
Cmax [12]: 8.4 µM
IC50 [13]: 1 nM
logD [7]: 2.1
solubility [14]: 2000 µg/mL (≈ 5.24 mM)
AUC(0-t) [15]: 1.9 µM·h
IC50 (Cytochrome P450 2C19): > 10000 nM
IC50 [16]: 10 nM
Vd [17]: 3.9 L/kg
AUC(0-t) [18]: 0.91 µM·h
IC50 (Cytochrome P450 2D6): > 10000 nM
half-life [19]: 2.5 h
clearance [20]: 114 mL/min/kg
half-life [21]: 0.5 h
IC50 (Cytochrome P450 2C9): > 10000 nM
bioavailability [22]: 24%
bioavailability [23]: 100%
IC50 [24]: 1 nM
Cmax [25]: 4.9 µM

Compound: Cc1cc(Nc2cc(N3CCN(C)CC3)nc(Sc3ccc(NC(=O)C4CC4)cc3)n2)n[nH]1 [TOZASERTIB]
Activity (HCT-116 [1]): 0.03 µM
IC50 (HCT-116 [6]): 24 nM

Compound: c1ccc2[nH]c(-c3cc[nH]n3)nc2c1
inhibition [26]: 49%
IC50 (Aurora kinase B): 6500 nM
IC50 [5]: 28000 nM

Compound: Cl.O=C(Nc1c[nH]nc1-c1nc2cc(CN3CCOCC3)ccc2[nH]1)NC1CC1
Activity (Mus musculus [27]): Non-toxic
T/C (HCT-116 [28]): 24%
Activity (Mus musculus [29]): Non-toxic
T/C (HCT-116 [30]): 33%

Compound: O=C(Nc1cccnc1)Nc1c[nH]nc1-c1nc2cc(CN3CCOCC3)ccc2[nH]1
Activity (HCT-116 [1]): 1 µM
IC50 (Aurora kinase A): 13 nM
IC50 (Aurora kinase B): 24 nM
IC50 [2]: 290 nM
IC50 [5]: 160 nM

Compound: O=C(Nc1c[nH]nc1-c1nc2ccccc2[nH]1)c1ccccc1
Activity (HCT-116 [1]): 3 µM
IC50 (Aurora kinase B): 180 nM
IC50 [2]: 230 nM

Compound: CC(=O)Nc1c[nH]nc1-c1nc2ccccc2[nH]1
IC50 (Aurora kinase A): 70 nM
IC50 (Aurora kinase B): 510 nM
IC50 [2]: 3200 nM
IC50 [5]: 990 nM

Further lines, with some results ahead:

IC50 (Aurora kinase A): 2.8 nM
IC50 (Aurora kinase B): 10 nM
IC50 [2]: 1100 nM
IC50 [5]: 230 nM
Compound: O=C(Nc1ccccc1F)Nc1c[nH]nc1-c1nc2cc(CN3CCOCC3)ccc2[nH]1
Activity (HCT-116 [1]): 0.1 µM

IC50 (Aurora kinase A): 3.5 nM
IC50 (Aurora kinase B): 15 nM
IC50 [2]: 340 nM
IC50 [5]: 140 nM
Compound: O=C(Nc1c[nH]nc1-c1nc2cc(CN3CCOCC3)ccc2[nH]1)c1ccccc1
Activity (HCT-116 [1]): 0.1 µM

IC50 (Aurora kinase A): 1.5 nM
fraction unbound (in vitro): 0.169
logD [7]: 3.1
IC50 (Aurora kinase B): 2.6 nM
IC50 [2]: 290 nM
IC50 [5]: 160 nM
Compound: O=C(Nc1c[nH]nc1-c1nc2cc(CN3CCOCC3)ccc2[nH]1)Nc1c(F)cccc1F
Activity (HCT-116 [1]): 0.03 µM
IC50 (HCT-116 [6]): 17 nM

IC50 (Aurora kinase A): 26 nM
IC50 (Aurora kinase B): 10 nM
IC50 [2]: 17000 nM
Compound: O=C(Nc1c[nH]nc1-c1nc2cc(CN3CCOCC3)ccc2[nH]1)NC1CCOCC1
Activity (HCT-116 [1]): 1 µM

IC50 (Aurora kinase A): 5.7 nM
IC50 (Aurora kinase B): 5.2 nM
IC50 [2]: 2900 nM
IC50 [5]: 1200 nM
Compound: O=C(Nc1c[nH]nc1-c1nc2cc(CN3CCOCC3)ccc2[nH]1)NC1CCCCC1
Activity (HCT-116 [1]): 0.1 µM

From ChEMBL document CHEMBL1139387, “Fragment-based discovery of the pyrazol-4-yl urea (AT9283), a multitargeted kinase inhibitor with potent aurora kinase activity” (J Med Chem, 2009)
